# What was measured:
# [1] = target: HDAC-2 (Homo sapiens, UniProt Q92769); test: Enzymatic HDAC inhibition assay (fluorescence), HDAC-2; format: biochemical; conditions: compound at 10 µM
# Procedure: (§1) Enzymatic assays to evaluate HDAC inhibition were performed, and the design involved three steps: (a) Preliminary screening to identify the most promising compounds; (b) Evaluation by a panel of HDAC isoforms to investigate selectivity; and (c) Determination of IC50 values. Firstly, compounds (4–7; 15–26) were evaluated at 10 µM against HDAC-1 and HDAC-2 (Table 2).
# (§2) The enzymatic assay to evaluate HDAC inhibitory effects for all final compounds against the distinct isoforms was carried out in accordance with the previously described procedures (Lopes et al., 2021). All compounds were initially screened at 10 µM against HDAC-1 and HDAC-2. […] All the compounds were dissolved in DMSO. A serial dilution of the compounds was performed in 100% DMSO with the highest concentration at 1 mM. Each intermediate compound dilution (in 100% DMSO) was diluted 10x in assay buffer to form a 10% DMSO intermediate dilution in HDAC assay buffer. 5 µL of this dilution was added to a 50 µL reaction to bring the final concentration of DMSO to 1% in all the reactions. Three independent experiments were carried out in triplicate for all experiments. The fluorescence intensity was measured at an excitation of 360 nm and emission of 460 nm using a Tecan Infinite M1000 microplate reader, and the percentage of activity was calculated using the formula: % activity = (F − Fb)/(Ft − Fb), where F = the intensity of fluorescence in the presence of the compound. In the absence of the test compound, the fluorescent intensity (Ft) in each dataset was defined as 100% activity, while in the absence of HDAC, the fluorescent intensity (Fb) in each dataset was set to 0% activity.
# [2] = target: HDAC-1 (Homo sapiens, UniProt Q13547); test: Enzymatic HDAC inhibition assay (fluorescence), HDAC-1; format: biochemical; conditions: compound at 10 µM
# Procedure: as §1, §2
# [3] = test system: SIRT1; design: method as in PMID 30526767; conditions: dose-dependent experiments; cited from earlier work
# [4] = test system: HDAC isoforms; design: method as in PMID 24023672; conditions: RVT 100 µM, nuclear extract of HeLa cells; cited from earlier work
# HDAC-2, sequence (Q92769 whole entry, canonical isoform): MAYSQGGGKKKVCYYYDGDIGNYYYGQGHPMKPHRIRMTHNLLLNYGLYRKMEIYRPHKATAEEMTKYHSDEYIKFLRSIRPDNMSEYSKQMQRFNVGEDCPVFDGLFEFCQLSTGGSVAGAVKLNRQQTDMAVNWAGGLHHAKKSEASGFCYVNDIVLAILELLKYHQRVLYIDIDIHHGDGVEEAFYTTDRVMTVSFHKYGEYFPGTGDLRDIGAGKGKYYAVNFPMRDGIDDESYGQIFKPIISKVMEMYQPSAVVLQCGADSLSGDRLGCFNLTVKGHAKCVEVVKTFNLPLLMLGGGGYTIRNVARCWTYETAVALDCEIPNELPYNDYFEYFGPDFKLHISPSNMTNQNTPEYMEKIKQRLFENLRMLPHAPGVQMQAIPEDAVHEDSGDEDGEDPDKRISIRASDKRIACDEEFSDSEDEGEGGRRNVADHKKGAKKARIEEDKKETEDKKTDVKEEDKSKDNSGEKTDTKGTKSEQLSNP
# HDAC-1, sequence (Q13547 whole entry): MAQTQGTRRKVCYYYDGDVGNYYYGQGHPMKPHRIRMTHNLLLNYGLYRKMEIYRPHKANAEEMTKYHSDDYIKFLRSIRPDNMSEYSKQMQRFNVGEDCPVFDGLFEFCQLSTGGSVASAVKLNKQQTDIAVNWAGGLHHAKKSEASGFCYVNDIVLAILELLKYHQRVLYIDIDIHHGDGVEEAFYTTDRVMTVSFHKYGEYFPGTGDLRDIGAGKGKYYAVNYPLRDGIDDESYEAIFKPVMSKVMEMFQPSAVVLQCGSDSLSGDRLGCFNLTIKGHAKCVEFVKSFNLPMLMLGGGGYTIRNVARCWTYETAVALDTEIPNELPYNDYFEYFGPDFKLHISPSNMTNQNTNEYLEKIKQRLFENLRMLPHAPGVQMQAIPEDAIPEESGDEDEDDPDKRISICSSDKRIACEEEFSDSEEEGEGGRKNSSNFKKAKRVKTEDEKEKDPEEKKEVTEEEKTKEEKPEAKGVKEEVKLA
inhibition at 10 µM [1] [%],inhibition at 10 µM [2] [%],Compound,further results
0,9 ± 1,O=C(O)c1ccc(/C=C/c2ccccc2)cc1 [(6)],
28 ± 1,45 ± 1.2,Nc1ccc(/C=C/c2ccc(C(=O)Nc3ccccc3N)cc2)cc1 [Compound (4)],
32 ± 0.7,42 ± 0.7,Nc1ccccc1NC(=O)c1ccc(/C=C/c2ccccc2)cc1 [Compound (7)],melting point: 177 to 179 °C
11,16 ± 0.6,O=C(O)c1ccc(COc2ccccc2)cc1 [Compound (15)],HDAC-2 inhibition ([1]; 10 µM): 10 ± 0.5%
11 ± 0.5,12 ± 0.7,O=C(O)c1ccc(COc2ccc(O)cc2)cc1 [Compound (17)],
8 ± 0.6,13 ± 0.9,NC(=O)c1ccccc1OCc1ccc(C(=O)O)cc1 [Compound (19)],melting point: 196.5 to 198.6 °C
85 ± 1.1,87 ± 1.1,Nc1ccccc1NC(=O)c1ccc(COc2ccccc2)cc1 [Compound (20)],
93 ± 1.2,96 ± 1.3,Nc1ccccc1NC(=O)c1ccc(CNc2ccccc2)cc1 [Compound (21)],
92 ± 0.7,96 ± 1.2,Nc1ccccc1NC(=O)c1ccc(COc2ccc(O)cc2)cc1 [Compound (22)],
52 ± 0.8,72 ± 1.1,Nc1ccc(OCc2ccc(C(=O)Nc3ccccc3N)cc2)cc1 [Compound (23)],
81 ± 1.1,86 ± 1,NC(=O)c1ccccc1OCc1ccc(C(=O)Nc2ccccc2N)cc1 [Compound (24)],melting point: 162 to 163.7 °C
21 ± 0.8,14 ± 0.5,Nc1ccccc1NC(=O)c1ccc(COc2ccc(N3C(=O)c4ccccc4C3=O)cc2)cc1 [Compound (25)],
6 ± 0.6,1 ± 0.5,Nc1ccccc1NC(=O)c1ccc(COc2ccc(N3C(=O)c4cccc([N+](=O)[O-])c4C3=O)cc2)cc1 [Compound (26)],
,,"Oc1ccc(/C=C/c2cc(O)cc(O)c2)cc1 [Resveratrol (RVT), trans-3,5,4′-trihydroxystilbene]",deacetylation rate of SIRT1 [3]: increased; inhibition of HDAC-1 and HDAC-10 [4]: 40%; inhibition of HDAC-4 and HDAC-9 [4]: 50%
